From US20260216350A1 (UNIVERSITY OF NOTRE DAME DU LAC, priority 2023, published 2026)

Legend:
[1] = system: STZ-induced diabetic mice; test: Multi-day blood glucose control study; format: in vivo, mouse
Procedure: (§1) STZ Mouse Model. […] Specifics of these studies are detailed here:
Multi-Day Blood Glucose Control Study. […] BGL was then monitored for an additional 3 h following IPGTT. Mice were fasted during the entire IPGTT period with free access to water. Mice were fed after IPGTT. At 48 h post treatment, mice were fasted for 5 h followed by an IPGTT challenge for 3 h. Mice were then fed at the end of IPGTT. The IPGTT challenges were repeated on Day 4 and Day 6. Area under the curve (AUC) for each IPGTT cycle was calculated using the trapezoidal rule and statistically analyzed using GraphPad Prism v 9.0.

[2] = system: STZ diabetic mice; test: Long term blood glucose control study (serial dosing); format: in vivo, mouse
Procedure: as §1
Long term blood glucose control study. Healthy mice were first weighed individually and injected STZ following the above protocol. […] Mice were fed after treatment injection and brought back to their cage on Day 0. […] For all other groups, 48 h post treatment injection, mice were fasted for 5 h to adjust for time since last eating, followed with BGL measurement. The same process was repeated at 96 h following treatment injection. After measurement, mice were weighed individually. Mice were then re-dosed with the same formula every 5 days, collecting BGL at 48 h and 96 h following treatment with a 5 h fast; the process was repeated for one month.

[3] = target: insulin receptor (Homo sapiens, UniProt P06213); conditions: cited from earlier work
insulin receptor, sequence (P06213 28-758 limits assumed, species assumed): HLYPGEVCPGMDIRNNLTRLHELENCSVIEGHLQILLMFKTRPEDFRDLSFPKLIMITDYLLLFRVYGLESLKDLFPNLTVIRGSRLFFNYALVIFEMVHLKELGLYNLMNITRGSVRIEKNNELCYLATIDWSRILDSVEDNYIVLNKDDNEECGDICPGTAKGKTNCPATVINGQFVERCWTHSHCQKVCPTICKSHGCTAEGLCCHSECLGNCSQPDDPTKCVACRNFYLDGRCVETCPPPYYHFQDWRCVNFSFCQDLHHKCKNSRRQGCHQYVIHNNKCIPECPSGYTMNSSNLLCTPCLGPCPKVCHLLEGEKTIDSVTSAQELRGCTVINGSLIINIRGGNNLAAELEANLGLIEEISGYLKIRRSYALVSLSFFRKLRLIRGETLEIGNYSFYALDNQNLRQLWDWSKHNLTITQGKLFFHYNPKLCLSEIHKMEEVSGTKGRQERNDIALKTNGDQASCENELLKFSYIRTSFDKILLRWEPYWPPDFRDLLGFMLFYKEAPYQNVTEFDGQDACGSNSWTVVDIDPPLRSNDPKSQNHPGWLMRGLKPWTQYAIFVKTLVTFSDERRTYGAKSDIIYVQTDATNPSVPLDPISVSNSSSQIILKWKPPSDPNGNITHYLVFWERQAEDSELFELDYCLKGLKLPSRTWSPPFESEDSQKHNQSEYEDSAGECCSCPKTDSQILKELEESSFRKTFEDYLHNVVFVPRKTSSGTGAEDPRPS
insulin receptor, sequence (P06213 763-1382 partner limits assumed, species assumed): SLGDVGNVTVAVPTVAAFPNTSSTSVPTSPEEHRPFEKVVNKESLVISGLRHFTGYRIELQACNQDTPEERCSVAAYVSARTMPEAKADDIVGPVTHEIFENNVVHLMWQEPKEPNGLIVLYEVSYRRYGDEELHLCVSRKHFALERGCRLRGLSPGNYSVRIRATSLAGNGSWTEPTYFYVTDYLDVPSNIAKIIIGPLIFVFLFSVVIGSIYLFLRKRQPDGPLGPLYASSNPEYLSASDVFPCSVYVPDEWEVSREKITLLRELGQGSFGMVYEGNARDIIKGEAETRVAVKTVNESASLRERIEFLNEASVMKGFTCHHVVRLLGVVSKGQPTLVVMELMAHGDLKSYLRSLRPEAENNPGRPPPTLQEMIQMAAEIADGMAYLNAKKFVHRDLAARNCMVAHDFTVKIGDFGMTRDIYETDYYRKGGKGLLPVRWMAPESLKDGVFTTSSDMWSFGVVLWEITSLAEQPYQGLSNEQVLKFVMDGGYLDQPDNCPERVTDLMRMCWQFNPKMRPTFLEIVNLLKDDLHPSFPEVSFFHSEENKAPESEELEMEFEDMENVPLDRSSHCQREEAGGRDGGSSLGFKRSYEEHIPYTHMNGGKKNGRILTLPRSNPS

[4] = in vivo; cited from earlier work
[5] = system: STZ diabetic mice; test: In vivo activity verification in overnight-fasted STZ diabetic mice; set-up: species or system mouse; conditions: 0.1 mg/kg s.c.
Procedure: (§2) STZ Mouse Model. A chemically induce diabetes mouse model were established in male C57BL6/J mice (8 weeks, 25 g, Jackson Laboratory) using streptozotocin (STZ), according to common protocols. Mice were fasted for 4 h prior to injection with STZ at 150 mg/kg i.p., dissolved in pH 4.5 citrate buffer. Treated mice were fasted for an additional 0.5 h and were then supplied with food and water as normal. Treated mice were allowed to develop diabetes for 7 d, and diabetes was verified using handheld blood glucose meters (CVS), targeting unfasted blood glucose level (BGL) above 600 mg/dL.
In Vivo Activity Verification. STZ induced diabetic mice were fasted for 8 h on the eighth day following induction, and mice with BGL>350 mg/dL in their overnight fasted state were randomly divided into groups (n=4/group). […] BGLs for each group were continuously monitored for 6 h after treatment. Mice were fasted during the entire experiment.

[6] = system: STZ-induced diabetic mouse model; test: Determination of functional formulation and dose in STZ mice; conditions: unmodified insulin 0.17 mg/kg; complexes 0.17 or 3.5 mg/kg Insulin-DiPBA
Procedure: as §2
Mice were challenged with three intraperitoneal glucose tolerance tests (IPGTT).

Insulin Detemir
blood glucose control with daily administration ([1]; 1 IU/kg daily): did not sustain blood glucose control when this was not combined with overnight fasting | blood glucose level after 3 h, day 0 challenge ([1]; overnight-fasted, complexes 10.4 mg/kg, Insulin Detemir 1 IU/kg): 71 mg/dL | blood glucose throughout 5 weeks of repeat dosing ([2]; complexes every 5 d, 10.4 mg/kg, Insulin Detemir daily 1 IU/kg, 3 h fast): did not provide sustained blood glucose correction | body weight reduction from pre-STZ levels ([2]; daily dosing): ~ 20% | insulin receptor binding affinity relative to unmodified insulin [3]: ~ 25%

Insulin Glargine
duration of action [4]: 24 to 36 h

Insulin: recombinant human insulin, unmodified
time after which blood glucose increased [5]: ~ 120 min | BGL correction over three IPGTT cycles [6]: failed during the first IPGTT cycle
